Data taken from patent publication US20130131126A1, “DERIVATIVES OF 1,4-DIHYDROPYRIDINE POSSESSING ANTIVIRAL EFFICACY” (JSC Grindeks, priority 2010, published 2013).

What follows are molecules tested on influenza virus (H3N2) (assay: Antiviral efficacy against influenza virus on MDCK cell line in vitro). Conditions: MDCK cells infected with influenza virus (H3N2); compound present from 1 hour after infection until end of culture; over a wide concentration range.
Format: cell-based
In the case of `CCOC(=O)C1=C(C)NC(C)=C(C(=O)OCC(=O)[O-])C1.[Na+]` [sodium 2,6-dimethyl-3-ethoxycarbonyl-1,4-dihydropyridine-5-carbonyloxyacetate], the “antiviral efficacy against influenza” value is reported as “effective against influenza”. In the case of `COC(=O)C1=C(C)NC(C)=C(C(=O)OCC(=O)[O-])C1.[Na+]` [sodium 2,6-dimethyl-3-methoxycarbonyl-1,4-dihydropyridine-5-carbonyloxyacetate], the “antiviral efficacy against influenza” value is reported as “effective against influenza”. In the case of `COC(=O)C1C(C(=O)OCC(=O)[O-])=C(C)NC(C)=C1C(=O)OCC(=O)[O-].[Na+].[Na+]` [disodium 2,6-dimethyl-1,4-dihydropyridine-4-methoxycarbonyl-3,5-bis-(carbonyloxyacetate)], the “antiviral efficacy against influenza” value is reported as “effective against influenza”.
